Test results published in patent US20040235752A1, “3-fluoro-pyrrolidines as antidiabetic agents” (priority 2001, published 2004).

Target: DP-IV (Homo sapiens, UniProt P27487)
Experiment: DP-IV inhibition assay according to WO95/15309
Format: biochemical
Conditions: at concentrations up to 5 μM
Description: Compounds were assayed as inhibitors of DP-IV according to the methods described in WO95/15309.

Sequence of DP-IV (P27487 whole entry): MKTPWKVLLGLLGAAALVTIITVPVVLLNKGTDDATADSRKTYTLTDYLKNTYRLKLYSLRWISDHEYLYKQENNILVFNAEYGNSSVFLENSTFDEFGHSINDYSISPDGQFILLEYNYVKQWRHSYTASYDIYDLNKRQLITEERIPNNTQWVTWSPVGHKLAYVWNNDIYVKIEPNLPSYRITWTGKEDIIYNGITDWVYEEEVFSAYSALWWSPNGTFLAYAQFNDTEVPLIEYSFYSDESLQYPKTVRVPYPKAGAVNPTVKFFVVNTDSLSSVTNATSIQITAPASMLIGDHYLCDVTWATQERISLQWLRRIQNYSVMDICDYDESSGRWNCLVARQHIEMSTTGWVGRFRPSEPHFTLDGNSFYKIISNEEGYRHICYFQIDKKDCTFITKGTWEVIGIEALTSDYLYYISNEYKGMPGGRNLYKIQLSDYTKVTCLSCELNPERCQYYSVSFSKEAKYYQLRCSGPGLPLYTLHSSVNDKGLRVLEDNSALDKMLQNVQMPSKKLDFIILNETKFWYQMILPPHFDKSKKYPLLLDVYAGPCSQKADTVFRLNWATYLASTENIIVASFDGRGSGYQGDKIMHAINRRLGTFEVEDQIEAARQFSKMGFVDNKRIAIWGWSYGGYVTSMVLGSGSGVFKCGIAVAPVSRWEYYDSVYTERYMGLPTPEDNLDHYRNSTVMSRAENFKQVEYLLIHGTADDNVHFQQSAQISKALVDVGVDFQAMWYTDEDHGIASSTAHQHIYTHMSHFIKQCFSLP

Row | Compound | inhibition of DP-IV
1 | CC(=O)OCOC(=O)N[C@@H](CCCNC(=O)c1cnc(Cl)c(Cl)c1)C(=O)N1CCC(F)(F)C1 [Example 8, 1-[N^α-(Acetoxymethoxycarbonyl)-N^ω-(5,6-dichloronicotinoyl)-L-ornithinyl]-3,3-difluoropyrrolidine] | do not show significant inhibition
2 | CC(=O)OC(C)OC(=O)N[C@@H](CCCNC(=O)c1cnccn1)C(=O)N1CC(F)(F)C[C@H]1C#N (stereo partly drawn) [Example 7, (2S)-1-[N^α-(1′-Acetoxyethoxycarbonyl)-N^ω-(pyrazinyl-2-carbonyl)-L-ornithinyl]-4,4-difluoropyrrolidine-2-carbonitrile] | do not show significant inhibition
